Where two headings read alike, the source gives them in different places.

Among the data in patent US8664257B2, “Oxygen-substituted 3-heteroaroylamino-propionic acid derivatives and their use as pharmaceuticals” (Sanofi, priority 2010, dated 2014) are IC50 values, retold here.

This experiment has as its target T1, Recombinant human cathepsin A (Homo sapiens, UniProt P10619).
T1 construct: Recombinant human cathepsin A (residues 29-480, with a C-terminal 10-His tag); 10-His (C); purchased R&D Systems 1049-SE
T1 sequence (P10619 29-312 limits assumed): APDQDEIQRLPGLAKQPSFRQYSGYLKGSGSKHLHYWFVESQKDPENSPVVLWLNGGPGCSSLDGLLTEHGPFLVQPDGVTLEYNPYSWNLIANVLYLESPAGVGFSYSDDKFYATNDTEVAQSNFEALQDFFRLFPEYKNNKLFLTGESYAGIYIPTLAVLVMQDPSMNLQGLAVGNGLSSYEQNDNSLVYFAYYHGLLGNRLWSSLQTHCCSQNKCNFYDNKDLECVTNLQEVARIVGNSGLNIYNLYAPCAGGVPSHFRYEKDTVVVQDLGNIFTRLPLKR
T1 sequence (P10619 327-480 limits assumed): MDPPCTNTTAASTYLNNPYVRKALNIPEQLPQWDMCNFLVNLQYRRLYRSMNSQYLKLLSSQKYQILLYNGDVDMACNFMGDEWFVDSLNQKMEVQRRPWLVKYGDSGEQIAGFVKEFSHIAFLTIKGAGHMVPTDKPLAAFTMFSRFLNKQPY
In words: Cathepsin A inhibitory activity. Type of experiment: biochemical. The method in brief: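 Human cathepsin A (res. 29-480, C-His10) pre-activated with cathepsin L (MES pH 6.0, DTT, 15 min, 37 °C; quenched with 10 μM E-64). Enzyme (833 ng/ml) preincubated 15 min RT with compound in MES pH 5.5/DTT, then 2 μM Bodipy FL-bradykinin for 15 min RT. Capillary electrophoresis product/substrate peak areas; IC50 from % inhibition.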

The mark [1] stands for this setting: read-out: Activity (2): Cathepsin A inhibitory activity (IC50 class).
[2] abbreviates: recombinant human cathepsin A 833 ng/ml, Bodipy FL-labeled bradykinin 2 μM, pH 5.5, read-out: CATH-A IC50.

With `CCC(O)(CC)COc1cc(C(=O)N[C@@H](CC(=O)O)c2ccc(Cl)cc2Cl)nn1-c1ccccc1F` [Example 762, (S)-3-(2,4-Dichloro-phenyl)-3-{[5-(2-ethyl-2-hydroxy-butoxy)-1-(2-fluoro-phenyl)-1H-pyrazole-3-carbonyl]-amino}-propionic acid], the IC50 under setting [1] is below 100 nM.

For the compound `Cc1ccccc1[C@H](CC(=O)O)NC(=O)c1cc(OC[C@](C)(O)C(C)C)n(-c2ccccc2F)n1` [Example 765, (S)-3-{[1-(2-Fluoro-phenyl)-5-((R)-2-hydroxy-2,3-dimethyl-butoxy)-1H-pyrazole-3-carbonyl]-amino}-3-o-tolyl-propionic acid], the IC50 under setting [1] was below 100 nM.

On to `Cc1ccc([C@H](CC(=O)O)NC(=O)c2cc(OC[C@@](C)(O)C(C)C)n(-c3ccccc3F)n2)cc1` [Example 766, (S)-3-{[1-(2-Fluoro-phenyl)-5-((S)-2-hydroxy-2,3-dimethyl-butoxy)-1H-pyrazole-3-carbonyl]-amino}-3-p-tolyl-propionic acid], for which the concentration for half-maximal inhibition (IC50) runs as follows: under setting [1], below 100 nM; under setting [2], 0.692 nM.

`CC(C)[C@@](C)(O)COc1cc(C(=O)N[C@@H](CC(=O)O)c2cccc(Cl)c2)nn1-c1ccccc1F` [Example 767]: the IC50 under setting [1] was below 100 nM.

With `CC(C)[C@@](C)(O)COc1cc(C(=O)N[C@@H](CC(=O)O)c2ccc(F)cc2)nn1-c1ccccc1F` [Example 768, (S)-3-(4-Fluoro-phenyl)-3-{[1-(2-fluoro-phenyl)-5-((R)-2-hydroxy-2,3-dimethyl-butoxy)-1H-pyrazole-3-carbonyl]-amino}-propionic acid], the IC50 reads like this: under setting [1], below 100 nM; under setting [2], 1.15 nM.

On to `COc1cccc([C@H](CC(=O)O)NC(=O)c2cc(OC[C@@](C)(O)C(C)C)n(-c3ccccc3F)n2)c1OC` [Example 769], for which the IC50 under setting [1] is below 100 nM.

For `Cc1ccccc1[C@H](CC(=O)O)NC(=O)c1cc(OCC(C)(O)C(C)C)n(-c2ccccc2F)n1` (stereo partly drawn) [Example 770, (S)-3-{[1-(2-Fluoro-phenyl)-5-(2-hydroxy-2,3-dimethyl-butoxy)-1H-pyrazole-3-carbonyl]-amino}-3-o-tolyl-propionic acid], under setting [1], the IC50 is below 100 nM.

Consider `CC(C)(C)[C@@](C)(O)COc1cc(C(=O)N[C@@H](CC(=O)O)c2ccc(F)cc2)nn1-c1ccccc1F` [Example 771, (S)-3-(4-Fluoro-phenyl)-3-{[1-(2-fluoro-phenyl)-5-((R)-2-hydroxy-2,3,3-trimethyl-butoxy)-1H-pyrazole-3-carbonyl]-amino}-propionic acid], for which the IC50 is, setting by setting: under setting [1], below 100 nM; under setting [2], 1.97 nM.

Consider `Cc1ccc([C@H](CC(=O)O)NC(=O)c2cc(OC[C@@](C)(O)C(C)C)n(-c3ccccc3F)n2)c(C)c1` [Example 772, (S)-3-(2,4-Dimethyl-phenyl)-3-{[1-(2-fluoro-phenyl)-5-((S)-2-hydroxy-2,3-dimethyl-butoxy)-1H-pyrazole-3-carbonyl]-amino}-propionic acid], for which the IC50 under setting [1] was below 100 nM.

`CC(C)(C)[C@](C)(O)COc1cc(C(=O)NC(CC(=O)O)C2CCCCC2)nn1-c1ccccc1F` (stereo partly drawn) [Example 773, 3-Cyclohexyl-3-{[1-(2-fluoro-phenyl)-5-((S)-2-hydroxy-2,3,3-trimethyl-butoxy)-1H-pyrazole-3-carbonyl]-amino}-propionic acid]: the IC50 under setting [1] was below 100 nM.

As to `CC(C)(C)[C@@](C)(O)COc1cc(C(=O)N[C@@H](CC(=O)O)c2cccc(Cl)c2)nn1-c1ccccc1F` [Example 774, (S)-3-(3-Chloro-phenyl)-3-{[1-(2-fluoro-phenyl)-5-((R)-2-hydroxy-2,3,3-trimethyl-butoxy)-1H-pyrazole-3-carbonyl]-amino}-propionic acid], the IC50 under setting [1] is below 100 nM.

With `CC(C)C(C)(O)COc1cc(C(=O)N[C@@H](CC(=O)O)c2ccccc2Cl)nn1-c1ccccc1F` (stereo partly drawn) [Example 775, (S)-3-(2-Chloro-phenyl)-3-{[1-(2-fluoro-phenyl)-5-(2-hydroxy-2,3-dimethyl-butoxy)-1H-pyrazole-3-carbonyl]-amino}-propionic acid], the half-maximal inhibitory concentration (IC50) under setting [1] was below 100 nM.

With `CC(C)(C)[C@@H](O)COc1cc(C(=O)N[C@@H](CC(=O)O)c2cccc(Cl)c2Cl)nn1-c1ccccc1F` [Example 776, (S)-3-(2,3-Dichloro-phenyl)-3-{[1-(2-fluoro-phenyl)-5-((R)-2-hydroxy-3,3-dimethyl-butoxy)-1H-pyrazole-3-carbonyl]-amino}-propionic acid], the IC50 under setting [1] was below 100 nM.

With `CC(C)(C)C(=O)COc1cc(C(=O)N[C@@H](CC(=O)O)c2ccccc2Cl)nn1-c1ccccc1F` [Example 777, (S)-3-(2-Chloro-phenyl)-3-{[5-(3,3-dimethyl-2-oxo-butoxy)-1-(2-fluoro-phenyl)-1H-pyrazole-3-carbonyl]-amino}-propionic acid], the half-maximal inhibitory concentration (IC50) under setting [1] was below 100 nM.

Consider `CC(C)(C)[C@@](C)(O)COc1cc(C(=O)N[C@@H](CC(=O)O)c2cccc(C#N)c2)nn1-c1ccccc1F` [Example 778, (S)-3-(3-Cyano-phenyl)-3-{[1-(2-fluoro-phenyl)-5-((R)-2-hydroxy-2,3,3-trimethyl-butoxy)-1H-pyrazole-3-carbonyl]-amino}-propionic acid], for which, under setting [1], the IC50 is below 100 nM.

As to `CC(C)(C)[C@@](C)(O)COc1cc(C(=O)N[C@@H](CC(=O)O)c2cccc(F)c2)nn1-c1ccccc1F` [Example 779, (S)-3-(3-Fluoro-phenyl)-3-{[1-(2-fluoro-phenyl)-5-((R)-2-hydroxy-2,3,3-trimethyl-butoxy)-1H-pyrazole-3-carbonyl]-amino}-propionic acid], the IC50 under setting [1] is below 100 nM.

For the compound `Cc1ccc([C@H](CC(=O)O)NC(=O)c2cc(OC[C@](C)(O)C(C)(C)C)n(-c3ccccc3F)n2)cc1` [Example 780, (S)-3-{[1-(2-Fluoro-phenyl)-5-((R)-2-hydroxy-2,3,3-trimethyl-butoxy)-1H-pyrazole-3-carbonyl]-amino}-3-p-tolyl-propionic acid], the IC50 under setting [1] is below 100 nM.

With `Cc1ccc([C@H](CC(=O)O)NC(=O)c2cc(OC[C@@](C)(O)C(C)(C)C)n(-c3ccccc3F)n2)cc1` [Example 781, (S)-3-{[1-(2-Fluoro-phenyl)-5-((S)-2-hydroxy-2,3,3-trimethyl-butoxy)-1H-pyrazole-3-carbonyl]-amino}-3-p-tolyl-propionic acid], the IC50 under setting [1] is below 100 nM.

For the compound `CC(C)C(C)(O)COc1cc(C(=O)N[C@@H](CC(=O)O)c2cccc(F)c2)nn1-c1ccccc1F` (stereo partly drawn) [Example 782, (S)-3-(3-Fluoro-phenyl)-3-{[1-(2-fluoro-phenyl)-5-(2-hydroxy-2,3-dimethyl-butoxy)-1H-pyrazole-3-carbonyl]-amino}-propionic acid], the IC50 under setting [1] is below 100 nM.

In the case of `COc1ccccc1[C@H](CC(=O)O)NC(=O)c1cc(OC[C@@](C)(O)C(C)C)n(-c2ccccc2F)n1` [Example 783, (S)-3-{[1-(2-Fluoro-phenyl)-5-((S)-2-hydroxy-2,3-dimethyl-butoxy)-1H-pyrazole-3-carbonyl]-amino}-3-(2-methoxy-phenyl)-propionic acid], the IC50 under setting [1] is below 100 nM.

With `CC(C)[C@](C)(O)COc1cc(C(=O)N[C@@H](CC(=O)O)c2ccccc2C(F)(F)F)nn1-c1ccccc1F` [Example 784, (S)-3-{[1-(2-Fluoro-phenyl)-5-((S)-2-hydroxy-2,3-dimethyl-butoxy)-1H-pyrazole-3-carbonyl]-amino}-3-(2-trifluoromethyl-phenyl)-propionic acid], the half-maximal inhibitory concentration (IC50) under setting [1] is below 100 nM.
